Data on 28 compounds can be found in PubChem BioAssay (NCI).

Holding throughout (assay): NCI-60 cell line screen, 48 h
The subject of experiment [1] is DU-145 prostate.
The test system of experiment [2] is MDA-MB-435.
Experiment [3] deals with MOLT-4 leukemia.
Experiment [4] concerns NCI-H226 lung.
In experiment [5] the test system is NCI-H23 lung.
Experiment [6] relates to NCI/ADR-RES ovarian.
Experiment [7] deals with OVCAR-5 ovarian.
The subject of experiment [8] is PC-3 prostate.
Experiment [9] relates to SF-539 CNS.
The test system of experiment [10] is RPMI-8226 leukemia.
For experiment [11], the system named is HL-60(TB) leukemia.

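Dose response: 5 concentrations. Exposure: 48 h. Format: 96-well plates. Endpoint: linear interpolation; highest concentration if not reached. GI50 = concentration required for 50% inhibition of growth. The concentration for full growth arrest is given as TGI.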

As to `CCOP(=O)(OCC)/C(C#N)=C/c1cccn1CC(C)C`, the TGI in experiment [1], in [2], in experiment [3], in [4], in experiment [5] and in experiment [6] was more than 100 µM throughout. Besides, the TGI in experiment [7], in experiment [8] and in [9] was more than 100 µM throughout.
`COc1ccc2oc(C(=O)N3CC(CCl)c4ccc([N+](=O)[O-])cc43)cc2c1` (stereo not given): the TGI in [1] is more than 100 µM; in experiment [2], more than 100 µM; in experiment [4] it was 36.8 µM; in experiment [5], more than 100 µM; in experiment [6], more than 100 µM; in experiment [8], more than 100 µM. The TGI in experiment [10] and in [9] was more than 100 µM throughout.
With `CCOC(=O)CCC(NC(=O)c1ccc(OCc2nc3ccccc3n3cccc23)cc1)C(=O)OCC` (stereo not given), the TGI in [1], in experiment [11], in [2], in [3], in [4] and in experiment [5] was more than 100 µM throughout. Besides, the TGI in experiment [6], in experiment [7], in experiment [8] and in experiment [9] was more than 100 µM each time.
Regarding `CN(C)c1nc(NN)c2c(-c3ccccc3)c(-c3ccccc3)oc2n1`, the TGI in experiment [1], in experiment [2], in [3], in experiment [4], in [5] and in experiment [6] was more than 100 µM throughout. In addition, the TGI in experiment [7], in experiment [10] and in experiment [9] was more than 100 µM each time.
Regarding `Cc1c2c(n(Cc3ccccn3)c1C)NN=C(C#N)S2(=O)=O`, the TGI in experiment [1], in experiment [2], in experiment [3], in experiment [4], in [5] and in experiment [6] was more than 100 µM in each case. Further, the TGI in experiment [7], in [8] and in experiment [9] was more than 100 µM in each case.
On to `CCCCn1c2c(n(CCCC)c1=S)-c1c(n(CCCC)c(=S)n1CCCC)SSSS2`, for which the TGI in experiment [1] was more than 35.3 µM; in experiment [2], 23.9 µM; in experiment [3], more than 36.2 µM; in [4], 80.8 µM; in [5], 14.3 µM; in [6], 71.5 µM. The TGI in experiment [7] is 1.66 µM; in experiment [8], 7.24 µM; in [10], 10.2 µM; in [9], 2.94 µM.
On to `COc1ccc(O)c(C=NCCCN=Cc2cc(OC)ccc2O)c1`, for which the TGI in experiment [1] is 80.5 µM; in experiment [11], 28.5 µM; in experiment [2], 86.4 µM; in [3], more than 100 µM; in [4] it was 73.2 µM; in [5] it was more than 100 µM. Moreover, the values for the TGI in [7], in experiment [8] and in [10] were more than 100 µM, more than 100 µM and 74.7 µM, respectively.
Consider `COc1ccccc1Cn1nc(OC)c2cc([N+](=O)[O-])ccc21`, for which the TGI in experiment [1] was more than 100 µM; in experiment [11] it was more than 100 µM; in experiment [2], more than 100 µM; in experiment [3] it was more than 100 µM; in experiment [4], more than 100 µM; in experiment [5] it was more than 89.2 µM. The TGI in [6] is more than 100 µM; in experiment [7], more than 100 µM; in experiment [8] it was more than 100 µM; in [9], more than 53.5 µM.
`N/N=C1/CCCc2nonc21`: the TGI in [1], in [11], in [2], in experiment [3], in experiment [5] and in experiment [6] was more than 100 µM each time. The TGI in [7], in experiment [8], in [10] and in [9] was more than 100 µM in each case.
Consider `O=C(NC1=NC2C=CC([N+](=O)[O-])=CC2S1)C(=O)Nn1c(=S)[nH]c2ccccc2c1=O` (stereo not given), for which the TGI in experiment [11], in [2], in experiment [3], in experiment [4], in [5] and in [6] was more than 100 µM throughout. The TGI in [7], in [8], in experiment [10] and in [9] was more than 100 µM in each case.
For `O=S(CCCl)c1c2ccccc2nc2ccccc12` (stereo not given), the TGI in experiment [1], in experiment [11], in experiment [2], in experiment [3], in [4] and in experiment [5] was more than 100 µM each time. In addition, the TGI in experiment [6], in experiment [7], in experiment [8] and in experiment [9] was more than 100 µM throughout.
For the compound `O=C(CCc1cccc(O)c1)NCCc1ccc(O)cc1`, the TGI in experiment [1], in experiment [11], in experiment [2], in experiment [3], in experiment [4] and in [5] was more than 100 µM throughout. Further, the TGI in [6], in experiment [7], in experiment [8] and in [9] was more than 100 µM in each case.
`CN(/N=C/C=N/N(C)C1=NCCCCN1)C1=NCCCCN1`: the TGI in experiment [2], in experiment [3], in experiment [4], in experiment [5], in experiment [6] and in experiment [7] was more than 100 µM throughout. Moreover, the TGI in experiment [8] and in experiment [9] was more than 100 µM each time.
In the case of `Cc1cccc(-c2cc(=S)c3cc(N4CCCC4)ccc3[nH]2)c1`, the TGI in experiment [1], in experiment [2], in [3], in [4], in experiment [6] and in [7] was more than 100 µM each time. The TGI in [8], in experiment [10] and in experiment [9] was more than 100 µM in each case.
Regarding `CC1CCC2C(C(=O)O[C@H]3C4CCO[C@@H](OC5OC(CO)C(O)C(O)C5O)C4[C@@]4(CO)O[C@@H]34)=CO[C@@H](OC3OC(CO)C(O)C(O)C3O)C12` (stereo not given in full), the TGI in experiment [1], in experiment [11], in experiment [2], in experiment [3], in [4] and in [5] was more than 10 µM each time. Moreover, the TGI in experiment [7], in experiment [8], in experiment [10] and in experiment [9] was more than 10 µM throughout.
In the case of `COc1ccc2c(c1)N=C1CSC(c3cc([N+](=O)[O-])ccc3Cl)N1C2` (stereo not given), the TGI is 55.7 µM in experiment [11]; 47.6 µM in [2]; 77.8 µM in experiment [3]; more than 100 µM in experiment [4]; 62.4 µM in experiment [5]; 74.1 µM in experiment [6]. The TGI in [7] was determined as 68.2 µM; in experiment [8], 59.3 µM; in experiment [10], 57.6 µM; in [9] it was 71.2 µM.
Regarding `ClC1=C(Cc2ccccc2)Cc2ccc3c(c21)CCC3`, the TGI in experiment [1] was more than 100 µM; in experiment [11], 41.5 µM; in experiment [2], 75.6 µM; in [3], 39.8 µM; in experiment [4] it was 74.1 µM; in experiment [5], more than 100 µM. Moreover, the TGI in experiment [7] was more than 100 µM; in [8], more than 100 µM; in [10], 65.3 µM; in experiment [9], more than 100 µM.
As for `COC(=O)C(Cc1ccccc1)OC(=O)C(N)CC(=O)O` (stereo not given), the TGI in experiment [1], in experiment [2], in experiment [3], in experiment [4], in experiment [5] and in [6] was more than 100 µM in each case. The TGI in [7], in experiment [8], in [10] and in experiment [9] was more than 100 µM throughout.
In the case of `COc1cccc(/C=C2\CCCCCC2=O)c1`, the TGI in experiment [1], in [2], in experiment [3], in experiment [4], in [5] and in [7] was more than 100 µM throughout. The TGI in experiment [8] and in experiment [10] was more than 100 µM throughout.
Take `CCOC(=O)[C@@]12CCC(C1=O)[C@](C)(O)C[C@@H]2c1ccccc1`: the TGI is more than 100 µM in [1]; more than 100 µM in [11]; 38.4 µM in [2]; more than 100 µM in experiment [3]; more than 100 µM in experiment [4]; more than 100 µM in experiment [5]. Besides, the TGI in experiment [6], in experiment [7], in experiment [8] and in experiment [9] was more than 100 µM each time.
Consider `CC(=O)Oc1cc2c(cc1OC(C)=O)[C@H]1CC[C@]3(C)[C@@H](OC(C)=O)CC[C@H]3[C@@H]1CC2`, for which the TGI in experiment [1] is 38.9 µM; in experiment [2] it was 9.65 µM; in experiment [5], 22.9 µM; in [6], 29.5 µM; in [7], 24.2 µM; in experiment [8], 25.5 µM. Besides, the TGI in experiment [10] stood at 8.43 µM; in experiment [9] it was 15.9 µM. Moreover, the GI50 in experiment [2] was 0.316 µM; in experiment [9], 3.53 µM.
In the case of `CC(C)NCC(O)c1ccc(OCc2ccccc2)c(OCc2ccccc2)c1-c1ccccc1` (stereo not given), the TGI in experiment [1] stood at 3.14 µM; in [3], 4.55 µM; in [4], 4.28 µM; in experiment [6], 3.73 µM; in experiment [7], 3.16 µM; in experiment [8], 3.11 µM. The compound also registered a TGI in experiment [9] of 2.98 µM.
Take `O=C(/C=C/c1ccco1)CC(=O)/C=C/c1ccco1`: the TGI was found to be 11.7 µM in experiment [11]; 22.1 µM in experiment [2]; 23 µM in experiment [3]; 17.4 µM in [5]; 21.7 µM in experiment [6]; 23.3 µM in [7]. The TGI in experiment [10] was found to be 23.9 µM; in [9], 21.2 µM.
As to `c1cncc(-c2ncc3cccnc3n2)c1`, the TGI in experiment [1], in [11], in experiment [3], in experiment [4], in [5] and in [6] was more than 100 µM each time. In addition, the TGI in [7], in experiment [8], in [10] and in [9] was more than 100 µM each time.
As to `CN(CCCCN(C)CCc1ccc(Cl)c(Cl)c1)CCCCN1CCCC1`, the TGI is 8.92 µM in experiment [1]; 3.97 µM in [11]; 0.904 µM in experiment [2]; 4.01 µM in [4]; 3.41 µM in [5]; 13.4 µM in [6]. Besides, the results for the TGI in experiment [7] and in experiment [8] were 5.54 µM and 4.52 µM, respectively.
Take `CCOP(=O)(C=C=C(C)C)OCC`: the TGI in experiment [1], in experiment [11], in experiment [2], in [4], in experiment [5] and in [6] was more than 100 µM each time. Further, the TGI in experiment [7], in experiment [8] and in [9] was more than 100 µM throughout.
In the case of `COc1cc([C@@H]2c3[nH]c4ccccc4c3C(Nc3ccc([N+](=O)[O-])cc3)[C@H]3COC(=O)N23)cc(OC)c1O` (stereo not given in full), the TGI was determined as 0.744 µM in experiment [1]; 0.048 µM in experiment [11]; 2.45 µM in experiment [2]; 0.289 µM in experiment [3]; 0.532 µM in experiment [4]; 1.51 µM in experiment [5]. Also, the TGI is more than 100 µM in [6], 2.06 µM in [7], 7.88 µM in experiment [8] and 0.302 µM in experiment [9].
Turning to `Cc1n[nH]c(=O)n1/N=C/c1c[nH]c2ccccc12`, the TGI in experiment [1], in experiment [2], in experiment [3], in experiment [5], in experiment [6] and in experiment [7] was more than 100 µM in each case. The TGI in [8], in experiment [10] and in [9] was more than 100 µM in each case.
